From patent US4621081A, “Cephalosporin antibiotics” (Glaxo Group Limited, priority 1978, dated 1986)

How the values were obtained:
[1] = General (broad spectrum) antibiotic activity; assay type: cell-based
[2] = system: gram-negative bacteria; assay: Experimental infections in mice with gram-negative bacteria; assay type: in vivo
[3] = Effect of human serum on antibacterial properties; assay type: cell-based
[4] = Serum levels and serum half-life in primates after intramuscular injection; assay type: in vivo
[5] = system: strains of Staphylococcus aureas; assay: Activity against strains of Staphylococcus aureas; assay type: cell-based
[6] = Nephrotoxicity in rats; assay type: in vivo; details: dosages of 2.0 g/kg
[7] = Bactericidal action relative to minimum inhibitory concentration; assay type: cell-based
[8] = system: strains of Pseudomonas aeruginosa; assay: Experimental infections in mice with strains of Pseudomonas aeruginosa; assay type: in vivo; details: experimental infection
[9] = Acute toxicity tests in mice; details: mouse, in vivo
[10] = system: strains of Pseudomonas; assay: Activity against strains of Pseudomonas; assay type: cell-based
[11] = Distribution in the bodies of small rodents after subcutaneous injection; assay type: in vivo
[12] = Effect of increased inocula; assay type: cell-based

Structure (SMILES): C[n+]1ccc(SCC2=C(C(=O)[O-])N3C(=O)[C@@H](NC(=O)/C(=N\OC(C)(C)C(=O)O)c4csc(N)n4)[C@H]3SC2)cc1 [(6R,7R)-7-[(Z)-2-(2-aminothiazol-4-yl)-2-(2-carboxyprop-2-oxyimino)acetamido]-3-[(1-methylpyridinium-4-yl)-thiomethyl]ceph-3-em-4-carboxylate]
- general antibiotic properties / antibiotic activity [1]: not dissimilar properties to the compound of formula (Ib)

Structure (SMILES): C[n+]1ccc(SCC2=C(C(=O)[O-])N3C(=O)[C@@H](NC(=O)/C(=N\OC4(C(=O)O)CCC4)c4csc(N)n4)[C@H]3SC2)cc1 [compound of formula (Ib), (6R,7R)-7-[(Z)-2-(2-aminothiazol-4-yl)-2-(1-carboxycyclobut-1-oxyimino)acetamido]-3-[(1-methylpyridinium-4-yl)-thiomethyl]ceph-3-em-4-carboxylate]
- treatment of experimental infections in mice with gram-negative bacteria [2]: successfully treated
- antibacterial properties impaired by human serum [3]: not impaired
- half-life in man (probability, from serum half-life in primates) ([4]; man, inferred from serum half-life in primates): comparatively long half-life
- serum levels in primates ([4]; primates, intramuscular injection): high and long lasting serum levels
- activity against strains of Staphylococcus aureas [5]: useful activity
- nephrotoxicity in rats [6]: No nephrotoxicity was observed
- bactericidal at concentrations close to the minimum inhibitory concentration [7]: rapidly bactericidal
- protection against strains of Pseudomonas aeruginosa [8]: excellent protection
- protection compared with the treatment with an aminoglycoside such as amikacin ([8]; versus an aminoglycoside such as amikacin): comparable
- LD50 [9]: > 1000 mg/kg
- general antibiotic properties / antibiotic activity [1]: possesses to an outstanding extent the general antibiotic properties
- activity against strains of Pseudomonas [10]: excellent activity
- distribution in the bodies of small rodents [11]: well distributed
- therapeutic levels in small rodents [11]: useful therapeutic levels
- effect of increased inocula against the compound [12]: low
